From patent US12516055B2, “Protein kinase inhibitors and uses thereof for the treatment of diseases and conditions” (University of Houston System, priority 2019, dated 2026)
Like-named read-outs stand apart in the source and are kept apart here. Marks after values point to notes of the source that are not given here.

Columns and labels:
RIPK3 [1] = target: T1, RIPK3 (Homo sapiens, UniProt Q9Y572); test: Inhibition of recombinant RIPK3 (ADP-Glo kinase assay); assay type: biochemical; conditions: recombinant RIPK3, ADPGlo; read-out: Inhibition of RIPK3, RIPK3 protein IC50
T1 sequence (Q9Y572 whole entry, species assumed): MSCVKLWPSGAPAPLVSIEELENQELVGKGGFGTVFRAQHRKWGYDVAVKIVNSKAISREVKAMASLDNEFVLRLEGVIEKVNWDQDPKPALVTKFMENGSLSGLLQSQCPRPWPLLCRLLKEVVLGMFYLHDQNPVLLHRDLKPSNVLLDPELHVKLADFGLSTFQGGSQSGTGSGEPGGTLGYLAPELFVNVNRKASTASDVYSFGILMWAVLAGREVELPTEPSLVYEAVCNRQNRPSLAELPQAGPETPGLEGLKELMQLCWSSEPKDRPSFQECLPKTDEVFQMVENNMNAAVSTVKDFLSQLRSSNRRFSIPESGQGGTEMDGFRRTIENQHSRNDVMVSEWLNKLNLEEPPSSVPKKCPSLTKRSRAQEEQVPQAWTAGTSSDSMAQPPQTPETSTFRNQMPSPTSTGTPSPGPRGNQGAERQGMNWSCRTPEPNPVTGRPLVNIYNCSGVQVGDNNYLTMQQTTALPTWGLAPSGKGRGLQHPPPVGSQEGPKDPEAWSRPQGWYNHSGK
Method: (§2) IC50/LD50 values were determined for inhibition of recombinant RIPK3, inhibition of necroptosis in LPS/IDN-treated murine RAW264.7 macrophages and TNF/IDN-treated human Hela cells expressing RIPK3, RIPK3 binding by the inhibitors in live cells (NanoBRET assay), and induction of RIPK3-dependent apoptosis (i.e., on-target toxicity). Assays were performed using ADPGlo (kinase assay), CellTiter-Glo (viability), and NanoBRET (target engagement) assays.
(§3) For ADP-Glo assays, recombinant RIPK3 protein (20 ng per reaction) is diluted in the reaction buffer consisting of 50 mM HEPES, pH 7.5, 50 mM NaCl, 30 mM MgCl2, 1 mM DTT, 0.05% bovine serum albumin (BSA), 0.02% CHAPS. Diluted protein is added to low volume white 384 well plates (2 μL/well). […] Reactions are initiated by the addition of 2 μL of 100 μM ATP in the reaction buffer. Plates are sealed with plastic coverslips and incubated at room temperature for 4 h. Reactions are stopped by the addition of 5 μL of ADP-Glo reagent (Promega) and ADP generation reaction is performed for 40 mM at room temperature Luminescence signal is generated by the addition of 10 μL of Kinase detection reagent (Promega) for 30 mM at room temperature Luminescence signals are determined using appropriate luminescence plate-reader (typical integration time 0.3-1 sec). To calculate percent inhibition, average background signal is subtracted from test well and maximal signal wells. Inhibition, %=(1−(test signal/maximal signal))*100. The percent inhibition at a specified concentration is determined or IC50 values are calculated based on a dose range of inhibitor concentrations using non-linear regression in GraphPad Prism software. […] After incubation with drugs, 15 μL of CellTiter-Glo reagent is added to the wells and incubated for 10 min Luminescence signals are determined using appropriate luminescence plate-reader (typical integration time 0.3 sec). To calculate percent viability, Viability, %=(1−(test signal/maximal viability in the untreated wells))*100.

[2] = test system: LPS/IDN-treated murine RAW264.7 macrophages; test: Protection from necroptosis in LPS/IDN-treated RAW264.7 macrophages (CellTiter-Glo); assay type: cell-based
Method: as §2
(§4) After incubation with drugs, 15 μL of CellTiter-Glo reagent is added to the wells and incubated for 10 min Luminescence signals are determined using appropriate luminescence plate-reader (typical integration time 0.3 sec).

RIPK3 [3] = target: T1, RIPK3; test: RIPK3 binding in live HEK cells (NanoBRET target engagement); set-up: expressed in transfected cells; host or cells: HEK cells
Method: as §2

[4] = test system: TNF/IDN-treated human Hela cells expressing RIPK3; test: Protection from necroptosis in TNF/IDN-treated Hela-RIPK3 cells (CellTiter-Glo); assay type: cell-based
Method: as §2, §4

Hela-RIPK3 cells [5] = test system: Hela-RIPK3 cells
Method: as §2
For ADP-Glo assays, recombinant RIPK3 protein (20 ng per reaction) is diluted in the reaction buffer consisting of 50 mM HEPES, pH 7.5, 50 mM NaCl, 30 mM MgCl2, 1 mM DTT, 0.05% bovine serum albumin (BSA), 0.02% CHAPS. Diluted protein is added to low volume white 384 well plates (2 μL/well). […] Reactions are stopped by the addition of 5 μL of ADP-Glo reagent (Promega) and ADP generation reaction is performed for 40 mM at room temperature Luminescence signal is generated by the addition of 10 μL of Kinase detection reagent (Promega) for 30 mM at room temperature Luminescence signals are determined using appropriate luminescence plate-reader (typical integration time 0.3-1 sec). […] The percent inhibition at a specified concentration is determined or IC50 values are calculated based on a dose range of inhibitor concentrations using non-linear regression in GraphPad Prism software. […]

[6] = test system: RIPK3 and MLKL phosphorylation; test: RIPK3 and MLKL phosphorylation in RAW264.7 macrophages (Western blot, FIG. 31); assay type: cell-based; conditions: LPS 10 ng/ml + IDN6556 20 μM
Method: Necroptosis was induced by the combination of LPS (10 ng/ml) and pan-caspase inhibitor IDN6556 (20 μM). Note that LPS is a TLR4 ligand that, like TNF, can activate RIPK3 (and necroptosis) in the presence of a caspase inhibitor. The asterisk indicates a non-specific band sometimes see in pMLKL immunoblots. Samples are subjected to SDS-PAGE gele electrophoresis and Western blotting using RIPK3, phospho-Thr231/Ser232-RIPK3, MLKL and phospho-Ser345-MLKL antibodies (Abcam).

Hela-RIPK3 cells [7] = conditions: Mandal et al. 2014, one cell under both toxicity columns; cited from earlier work
human ALK2 = target: T2, human ALK2 (Homo sapiens, UniProt Q04771); test: ALK2 enzyme assay (33P-casein); assay type: biochemical; conditions: 10 μM ATP
T2 sequence (Q04771 21-509): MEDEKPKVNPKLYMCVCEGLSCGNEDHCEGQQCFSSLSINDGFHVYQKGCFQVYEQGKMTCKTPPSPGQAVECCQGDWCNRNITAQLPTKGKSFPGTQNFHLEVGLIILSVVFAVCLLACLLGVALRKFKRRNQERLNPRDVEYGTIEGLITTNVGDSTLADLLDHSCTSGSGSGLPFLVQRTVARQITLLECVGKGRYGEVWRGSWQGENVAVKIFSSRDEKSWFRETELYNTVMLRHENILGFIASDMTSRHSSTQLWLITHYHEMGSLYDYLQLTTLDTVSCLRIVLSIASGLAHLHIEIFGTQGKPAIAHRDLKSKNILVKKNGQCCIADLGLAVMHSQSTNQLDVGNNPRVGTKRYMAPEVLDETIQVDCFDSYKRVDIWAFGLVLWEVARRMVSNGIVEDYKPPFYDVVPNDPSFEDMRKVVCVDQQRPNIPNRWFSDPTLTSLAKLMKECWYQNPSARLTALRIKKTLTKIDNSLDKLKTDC
Method: Enzyme inhibitory activity was evaluated in a standard kinase enzyme assay by incubating human ALK2 with the protein substrate casein (1 mg/mL) and γ-^33ATP (10 μM) in the presence of various concentrations of test compounds (10 nM 100 μM). After 30 min the amount of ^33P-casein was determined.
(§1) Prepared compounds were evaluated for their ability to inhibit RIPK2 and ALK2 enzyme activities and NOD2 cellular signaling using the methods described above.

NOD2 cellular signaling = test: NOD2 signaling assay in HEK-Blue cells (NFkB-SEAP reporter); assay type: cell-based; conditions: Homo sapiens, L18-MDP stimulated, read-out: EC50 HEK Blue (μM) RIPK2
Method: HEK-Blue cells expressing human NOD2 and NFkB-SAEP reporter (Invivogen) are seeded into 96 well clear plates at 7.5×10^3 cells per well in 100 μL of DMEM media supplemented with 10% FBS and 1% antibiotic-antimycotic mix. Cells are allowed to attach for 48 h in 5% CO2 tissue culture incubator at 37° C. On the morning of the experiment, media in the wells is replaced with 100 μL of HEK-Blue detection media (Invivogen). Cells are treated with the inhibitors, diluted in DMSO (0.5 μL per well) for […] in 5% CO2 tissue culture incubator at 37° C. After that, cells are stimulated by the addition of 1 ng/well L18-MDP (Invivogen). Cells are incubated in 5% CO2 tissue culture incubator at 37° C. for 8 h and absorbance, corresponding to the SEAP in the media, is determined in Wallac3V plate reader (Perkin Elmer). Inhibition, %=(1−((sample signal-unstimulated and DMSO treated cells)/(L18−MDP stimulated and DMSO treated cells−unstimulated and DMSO treated cells)))*100.
as §1

[8] = Mus musculus, LPS/IDN-treated RAW264.7 cells, read-out: Protection from necroptosis, RAW264.7 cells IC50

Method for RAW264.7 cells: as §2, §3

SMILES	IC50 (RIPK3 [1]) [nM]	Toxicity, RAW264.7 cells LD50 (RAW264.7 cells) [µM]	IC50 (RIPK3 [3]) [nM]	other results
CN1CCN(c2cccc(Nc3cc4c(cn3)cc(-c3cccc(O)c3)c(=O)n4C)c2)CC1 [compound 38]	10	>10	20	IC50 [2, 8]: 20 nM
CN1CCN(c2cccc(Nc3cc4c(cn3)cc(-c3ccccc3Cl)c(=O)n4C)c2)CC1 [compound 37]	50	>10	80	IC50 ([4]; Homo sapiens): 60 nM; IC50 [2, 8]: 250 nM; Toxicity, Hela-RIPK3 cells LD50 (Hela-RIPK3 cells [5]): >10 µM
CCN(CC)CCOc1ccc(Nc2ncc3cc(-c4ccccc4)c(=O)n(CC)c3n2)cc1 [compound 4]	300	5.2	–	IC50 ([2]; Mus musculus, RAW264.7, read-out: Protection from necroptosis, RAW264.7 cells IC50): 180 nM
Cc1ccc(-c2cc3cnc(Nc4cccc(S(C)(=O)=O)c4)nc3n(C)c2=O)c(Cl)c1 [compound 20]	280	–	950	–
CCN(CC)CCOc1ccc(Nc2ncc3cc(-c4c(Cl)cccc4Cl)c(=O)n(CC(C)C)c3n2)cc1 [compound 10]	80	–	–	–
CC(C)S(=O)(=O)c1ccc2nccc(Nc3ccc4scnc4c3)c2c1 [GSK′872, reference compound]	–	–	–	IC50 [4]: 3210 nM; IC50 ([2]; LPS/IDN-treated RAW264.7 cells, read-out: Protection from necroptosis, RAW264.7 cells IC50): 1290 nM; Block of RIPK3 and MLKL phosphorylation [6]: block RIPK3 and MLKL phosphorylation; Toxicity LD50 (published value) (Hela-RIPK3 cells [7]): ~10* μM
CCN(CC)CCOc1ccc(Nc2ncc3cc(-c4c(Cl)cccc4Cl)c(=O)n(CCOC)c3n2)cc1 [compound 6]	20	–	20	–
CN1CCN(c2cccc(Nc3cc4c(cn3)cc(-c3ccccc3Cl)c(=O)n4C)c2)CC1 [UH15-37, 3-(2-chlorophenyl)-1-methyl-7-((3-(4-methylpiperazin-1-yl)phenyl)amino)-1,6-naphthyridin-2(1H)-one]	–	–	–	IC50 (human ALK2): 32300 nM; EC50 (NOD2 cellular signaling): 0.05 µM
Cn1c(=O)c(-c2ccccc2Cl)cc2cnc(Nc3cccc(N4CCS(=O)(=O)CC4)c3)cc21 [UH15-28, 3-(2-chlorophenyl)-7-((3-(1,1-dioxidothiomorpholino)phenyl)amino)-1-methyl-1,6-naphthyridin-2(1H)-one]	–	–	–	EC50 (NOD2 cellular signaling): 0.07 µM
